From article PMC10755736, “Modulating Liquid–Liquid Phase Separation of Nck Adaptor Protein against Enteropathogenic Escherichia coli Infection” (ACS Central Science, 2023) come the findings set out here.

Data set [1] deals with Caco-2 cells. The data set is described as follows: Cell viability by CCK8 assay. It is filed as cell-based. The protocol:
concentrations were added to each well, followed by a 90-min incubation at 37 °C. Diluted streptavidin-HRP solution was then added, followed by substrate solution to develop cover at 450 nm, and recorded by a plate reader. For MST test, a series diluted solutions of the cy5 labeled peptides were incubated with 400 nM Nck for 30 min and loaded into 16 capillaries. And then the samples were scanned and measured at 20% IR Laser power with 30 s laser-on time on a Monolith NT.115 instrument (NanoTemper Technologies). The data were analyzed by KD fitting model (KD) or hill fitting model […]
A Cell Line Stably Expressing N-WASP
To establish a stable pool of cells for N-WASP overexpression, Caco-2 cells were infected at 70-80% confluency with the virus diluted in a suitable medium supplemented with 8 µg/ml […]. After 48 h of incubation, infected cells were treated with puromycin for 7-14 days. The selection medium was changed every 2 days. Under the same treatment conditions, uninfected parental cells were used as selection controls. […]
Plasmid extraction was done using a plasmid DNA Maxi kit (Omega Bio-Tek, GA, USA). […] 48 h after transfection, cells were analyzed by fluorescent micrscopes. Cell viability was measured by a CCK8 assay (Thermo Fisher Scientific) according to its manual. […]
Figure S10. […] The viability was measured at 450 nm absorbance.
On the technique in general: Tetrazolium assays rely on reduction of a dye to a coloured formazan, in cell work by metabolically active cells.

For data set [2], the system named is Nck-SH2K331A. The data set is described as follows: Covalent reaction of p1 with Nck-SH2 K331A mutant. Format: binding. Particulars: PBS, 37 °C, 1 min or 10 min; SDS-PAGE. How it is done:
We next identified the residues in Nck-SH2 that are involved in the reaction with p1 by mass spectrometry. […] The Nck–p1 conjugate was digested with trypsin, and peptide fragments were analyzed with an in-line EASY-spray source and nano-LC UltiMate 3000 HPLC system interfaced with an Elite mass spectrometer, operated in the data-dependent acquisition (DDA) mode with one full MS scan at R = 60,000 (m/z = 200) mass followed by HCD MS/MS scans. […] The fragmentation spectral analysis of [EEHIpYXEVAAD(α)] + [HFKVQLK(β)] extracted by pLabel v2.4.3.0 (Figure 5a and Figure S6 in the Supporting Information)[38],[39] confirmed the ligand-directed conjugation of Nck-SH2 protein with p1 peptide. The underlined lysine residue in the β-chain sequence indicated the cross-linked site on the predicted Nck Lys331 residue. Next, we mutated Nck Lys331 to Ala, expressed and purified the Nck-SH2K331A mutant. […]
The reaction mixture of Nck and p1 were digested with trypsin. Digested peptides were analyzed with an in-line EASY-spray source and nano-LC UltiMate 3000 high-performance liquid chromatography system (Thermo Fisher, USA) interfaced with an Elite mass spectrometer (Thermo Fisher, USA). The eluted peptides were detected by the Elite mass spectrometer, which was operated in data-dependent mode with one full MS scan at R = 60,000 (m/z = 200) mass, followed by MS/MS scans. […]

“Also recorded” adds a separate entry of the source. Non-standard residues stand in square brackets, D forms with d. Residues, ends and D or L forms follow the SMILES beside them. *: point of attachment. Biotin = O=C1N[C@H]2[C@H](CS[C@H]2CCCCC(=O)*)N1; Benzoyl(4-SO2F) = O=C(c1ccc(S(=O)(=O)F)cc1)*; pY = N[C@@H](Cc1ccc(OP(=O)(O)O)cc1)C(=O)O; Dap = NC[C@H](N)C(=O)O

Take `CC[C@H](C)[C@H](NC(=O)[C@H](Cc1c[nH]cn1)NC(=O)[C@H](CCC(=O)O)NC(=O)[C@H](CCC(=O)O)NC(=O)CCCC[C@@H]1SC[C@@H]2NC(=O)N[C@@H]21)C(=O)N[C@@H](Cc1ccc(OP(=O)(O)O)cc1)C(=O)N[C@@H](CNC(=O)c1ccc(S(=O)(=O)F)cc1)C(=O)N[C@@H](CCC(=O)O)C(=O)N[C@H](C(=O)N[C@@H](C)C(=O)N[C@@H](C)C(=O)N[C@@H](CC(=O)O)C(N)=O)C(C)C` [p1] (Biotin-EEHI[pY][Dap](Benzoyl(4-SO2F))EVAAD-NH2; N-terminus and C-terminus assumed): the cytotoxicity result in data set [1] (CCK8, p1 0.3125-10 μM with L17E 40 μM for 3 h, 48 h incubation) is “did not cause noticeable cytotoxicity”. The “cell physiology or toxicity changes from side reactions of sulfonyl fluoride” value in data set [1] (inside cells) is reported as “did not cause noticeable changes in the cell physiology or toxicity”. Besides, the “reactivity with Nck-SH2 K331A” value in data set [2] is “did not show noticeable reactivity; also recorded: abolished the covalent reaction”.
